Measurements from patent US20180291070A1, “PEPTIDES, AND USES THEREOF” (priority 2015, published 2018).

Key:
[1] = system: elastic fibers of the dermis; test: morphometric quantification of elastic fibers in skin explants; assay type: cell-based, Human; details: for Morphometric quantification of elastic fibers in the middle dermis (%) / Morphometric quantification of elastic fibers in the superficial dermis (%): applied twice per day, 5 μL per explant
Method: (§1) Skin explants were prepared from abdominal plastic surgery. Some explants were delipidated with alcohol to obtain a dehydrated skin.
(§2) These explants were maintained in maintenance medium supplied by the provider Biopredic International for 5 days. Test items are applied twice per day with 5 μL per explant.
(§3) For each time of analysis (D1 and D5), histologies on delipidated explants, treated explants with test items, the DMSO 0.3% control and water control, are performed.
(§4) After receipt in the laboratory, each skin explant in the maintenance medium is delipidated with 5 μL alcohol during 3 hours.
(§5) After 3 hours, all skin explants are treated two per day with test items, and they are incubated at 37° C.+/−2° C., 5% CO2 for 1 day or 5 days.
The immunohistochemical staining intensity in the elastic fibers is evaluated using a semi-quantitative histological score.
The percentage area taken up by elastic fibers in the dermis was calculated in the dermis and the average superficial dermis. Results are presents in Table 4, FIG. 2 and FIG. 3.

[2] = system: keratinocytes of the basal layer of the epidermis; test: Ki67 immunohistochemistry (mitotic index) in skin explants; assay type: cell-based, Human
Method: as §1, §2, §3, §4, §5
Epithelial proliferation was analyzed by immunohistochemistry using anti-Ki67 antibody. […] Counting the number of labeled cells (keratinocytes of the basal layer of the epidermis) is performed and provides the total number of basal cells to calculate the % of labeled cells.
The results of the immunohistochemical analysis of Ki67 are reported in Table 5 and expressed as % of labelled at the basal layer of the epidermis. The Error! […] Immunohistochemical analysis of mitotic activity is shown in annex 4 with a reminder of the average for each analysed conditions.

TNF-α = TNF-α secretion by LPS-stimulated THP-1 differentiated macrophages (Biolegend ELISA); assay type: cell-based, human; details: THP-1 cells; 100, 10 or 1 ng/ml synthetic peptide 24 h, then 10 ng/ml LPS 5 h; vs untreated control
Method: TNF-α is secreted by macrophages in response to stimulation by endotoxins such as lipopolysaccharides (LPS). TNF-α is thought to be involved in systemic inflammation and dysregulation of TNF-α production is thought to be involved in many diseases. The Biolegend assay is a sandwich ELISA kit that is designed for the accurate quantitation of human TNF-α from cell culture supernatant, serum or plasma.
THP-1 monocytes were seeded in a 96 well plate at 10,000 cells per well in RPMI containing 10% fetal calf serum (FCS), 1% Pen/strep, 1% L-glutamine, 100 nM PMA and allowed to differentiated for 72 h prior to experimentation.
Following differentiation the cells were incubated with 100 ng/ml, 10 ng/ml or 1 ng/ml synthetic peptide for 24 h respectively.
Following treatment the cells were stimulated with 10 ng/ml LPS for 5 h and the quantity of TNF-α in the supernatant determined using the Biolegend assay ELISA kit.
Results were calculated as a percentage of the untreated control. An increase in optical density reading indicates greater quantity of TNF-α release into cell culture supernatant.
All experiments were prepared in duplicate on three plates (6 wells/conditions). Significance was calculated using Students t-test (*p<0.05 compared to control, **p<0.01 compared to control, *** p<0.001 compared to control).

[3] = system: Human Dermal Fibroblasts (HDF); test: BrdU Cell Proliferation Assay; assay type: cell-based; details: 5, 0.5 or 0.05 μg/ml synthetic peptide 24 h
Method: BrDu is incorporated into newly synthesised DNA strands of actively proliferating cells. Following partial denaturation of double stranded DNA, Brdu is detected immunochemically allowing the assessment of the population of cells which are synthesizing DNA. Human Dermal Fibroblasts (HDF—Sigma 10605a) were seeded in a 96 well plate at 10,000 cells per well in DMEM containing 10% fetal calf serum (FCS), 1% Pen/strep, 1% L-glutamine and allowed to adhere for 24 h. Following the initial 24 h incubation the cells were incubated with 5 μg/ml, 0.5 μg/ml or 0.05 μg/ml synthetic peptide for 24 h respectively. After 18 h incubation with synthetic peptides 20 μl BrDu reagent was added to each well. At 24 h incubation the cell were fixed and the amount of […] was measured using the BrdU Cell Proliferation Assay, all steps were carried out according to the manufacturer's instructions. Results were calculated as a percentage of the untreated control. An increase in optical density reading indicates greatER incorporation of BrDu and increase cell proliferation.

Row | Substance | Morphometric quantification of elastic fibers in the middle dermis (%) ([1]; D1) | Morphometric quantification of elastic fibers in the superficial dermis (%) ([1]; D1) | Morphometric quantification of elastic fibers in the middle dermis (%) ([1]; D5) | Morphometric quantification of elastic fibers in the superficial dermis (%) ([1]; D5) | % of Ki67 positive cells in the basal layer of the epidermis ([2]; D1) | % of Ki67 positive cells in the basal layer of the epidermis ([2]; D5) | elastic fibers in the middle dermis compared to the water control ([1]; D5) | elastic fibers in the superficial dermis compared to control water ([1]; D5) | number of mitotic cells compared to EGF ([2]; day 1) | TNF-α DECREASE (TNF-α) | INCREASE IN PROLIFERATION [3]
1 | VLLEQQEQEPQH [0723.05] | 8.8% | 6.34% | 6.61% | 6.26% | 9.48% | 3.08% |  |  |  |  | 
2 | EGF (Epidermal Growth Factor): Epidermal Growth Factor, 10 ng/mL, comparison condition in the skin explant tests [reference compound] | 5.68% | 3.64% | 6.61% | 5.61% | 25.11% | 4.2% |  |  |  |  | 
3 | HGEWRPSYEKQEDEE [0723.03] | 4.9% | 3% | 9% | 11.68% | 22.01% | 10.04% | increase | increase by twice |  |  | 
4 | RHGEWRPSY [0723.01] | 7.59% | 4.45% | 10.17% | 10.21% | 18.57% | 3.92% | increase | increase by twice |  |  | 
5 | QQYGIAASPFLQSAA [0723.07] | 6.46% | 4% | 5.33% | 5.15% | 22.22% | 5.26% |  |  |  |  | 
6 | RPYYSNAPQEIF [0723.04] | 5.22% | 3.28% | 9% | 8.94% | 14.97% | 11.36% |  |  |  |  | 
7 | EDLRLVDLVIPVNGPGKFE [0723.06] | 4.54% | 3.8% | 8.67% | 4.03% | 31.97% | 5.04% |  |  | increase |  | 
8 | 105 (LAGNKRNPQAYR) [compound 105] |  |  |  |  |  |  |  |  |  | 9% | 40%
9 | 85 (SIFRALPTDVLANAYRISREE) [compound 85] |  |  |  |  |  |  |  |  |  | 80% | 35%
